Test results: PubChem BioAssay (NCI)
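48-hour exposure; five concentrations; linearly interpolated endpoints. GI50 is the concentration that inhibits growth by half. TGI is the concentration that stops growth completely.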

Experiments:
Assay in all cases: NCI-60 cell line screen, 48 h
SK-MEL-5 melanoma = system: SK-MEL-5 melanoma
UACC-257 melanoma = system: UACC-257 melanoma
RPMI-8226 leukemia = system: RPMI-8226 leukemia
COLO 205 colon = system: COLO 205 colon
NCI-H23 lung = system: NCI-H23 lung
RXF 393 renal = system: RXF 393 renal
A549 NSCLC = system: A549 NSCLC
SK-OV-3 ovarian = system: SK-OV-3 ovarian
MDA-MB-435 = system: MDA-MB-435
SW-620 colon = system: SW-620 colon
CCRF-CEM leukemia = system: CCRF-CEM leukemia
HOP-62 NSCLC = system: HOP-62 NSCLC
MALME-3M melanoma = system: MALME-3M melanoma
SR leukemia = system: SR leukemia
KM12 colon = system: KM12 colon
HCT-15 colon = system: HCT-15 colon
SK-MEL-28 melanoma = system: SK-MEL-28 melanoma
SF-268 CNS = system: SF-268 CNS
HCC-2998 colon = system: HCC-2998 colon
MCF7 breast = system: MCF7 breast
ACHN renal = system: ACHN renal
OVCAR-3 ovarian = system: OVCAR-3 ovarian
SF-539 CNS = system: SF-539 CNS
HS 578T breast = system: HS 578T breast
OVCAR-4 ovarian = system: OVCAR-4 ovarian
T-47D breast = system: T-47D breast
NCI-H460 lung = system: NCI-H460 lung
MDA-MB-231 breast = system: MDA-MB-231 breast
OVCAR-8 ovarian = system: OVCAR-8 ovarian
SN12C renal = system: SN12C renal
DU-145 prostate = system: DU-145 prostate
NCI/ADR-RES ovarian = system: NCI/ADR-RES ovarian
LOX IMVI melanoma = system: LOX IMVI melanoma
BT-549 breast = system: BT-549 breast
786-0 renal = system: 786-0 renal
HCT-116 colon = system: HCT-116 colon
U251 CNS = system: U251 CNS
HL-60(TB) leukemia = system: HL-60(TB) leukemia
MOLT-4 leukemia = system: MOLT-4 leukemia
SF-295 CNS = system: SF-295 CNS
K-562 leukemia = system: K-562 leukemia
OVCAR-5 ovarian = system: OVCAR-5 ovarian
A498 renal = system: A498 renal
UACC-62 melanoma = system: UACC-62 melanoma
PC-3 prostate = system: PC-3 prostate
IGROV1 ovarian = system: IGROV1 ovarian
EKVX NSCLC = system: EKVX NSCLC
NCI-H522 lung = system: NCI-H522 lung
TK-10 renal = system: TK-10 renal
SNB-19 CNS = system: SNB-19 CNS
CAKI-1 renal = system: CAKI-1 renal
SK-MEL-2 melanoma = system: SK-MEL-2 melanoma
UO-31 renal = system: UO-31 renal
NCI-H226 lung = system: NCI-H226 lung
HT29 colon = system: HT29 colon
M14 melanoma = system: M14 melanoma
HOP-92 NSCLC = system: HOP-92 NSCLC

## COC(=O)[C@@H](Cc1ccccc1)NNC(=O)OC(C)(C)C
SK-MEL-5 melanoma
  TGI: > 100 µM
UACC-257 melanoma
  TGI: > 100 µM
RPMI-8226 leukemia
  TGI: > 100 µM
COLO 205 colon
  TGI: > 100 µM
NCI-H23 lung
  TGI: > 100 µM
RXF 393 renal
  TGI: > 100 µM
A549 NSCLC
  TGI: > 100 µM
SK-OV-3 ovarian
  TGI: > 100 µM
MDA-MB-435
  TGI: > 100 µM
SW-620 colon
  TGI: > 100 µM
CCRF-CEM leukemia
  TGI: > 100 µM
HOP-62 NSCLC
  TGI: > 100 µM
MALME-3M melanoma
  TGI: > 100 µM
SR leukemia
  TGI: > 100 µM
KM12 colon
  TGI: > 100 µM
HCT-15 colon
  TGI: > 100 µM
SK-MEL-28 melanoma
  TGI: > 100 µM
SF-268 CNS
  TGI: > 100 µM
HCC-2998 colon
  TGI: > 100 µM
MCF7 breast
  TGI: > 100 µM
ACHN renal
  TGI: > 100 µM
OVCAR-3 ovarian
  TGI: > 100 µM
SF-539 CNS
  TGI: > 100 µM
HS 578T breast
  TGI: > 100 µM
OVCAR-4 ovarian
  TGI: > 100 µM
T-47D breast
  TGI: > 100 µM
NCI-H460 lung
  TGI: > 100 µM
MDA-MB-231 breast
  TGI: > 100 µM
OVCAR-8 ovarian
  TGI: > 100 µM
SN12C renal
  TGI: > 100 µM
DU-145 prostate
  TGI: > 100 µM
NCI/ADR-RES ovarian
  TGI: > 100 µM
LOX IMVI melanoma
  TGI: > 100 µM
BT-549 breast
  TGI: > 100 µM
786-0 renal
  TGI: > 100 µM
HCT-116 colon
  TGI: > 100 µM
U251 CNS
  TGI: > 100 µM
HL-60(TB) leukemia
  TGI: > 100 µM
MOLT-4 leukemia
  TGI: > 100 µM
SF-295 CNS
  TGI: > 100 µM
K-562 leukemia
  TGI: > 100 µM
OVCAR-5 ovarian
  TGI: > 100 µM
A498 renal
  TGI: > 100 µM
UACC-62 melanoma
  TGI: > 100 µM
PC-3 prostate
  TGI: > 100 µM
IGROV1 ovarian
  TGI: > 100 µM
EKVX NSCLC
  TGI: > 100 µM
NCI-H522 lung
  TGI: > 100 µM
TK-10 renal
  TGI: > 100 µM

## Nc1nc(N)c2cc(CNc3ccc(C(=O)NC(CC(=O)O)C(=O)O)cc3)ccc2n1 (stereo unspecified)
SK-MEL-5 melanoma
  GI50: 0.34 µM
  TGI: > 100 µM
UACC-257 melanoma
  GI50: > 100 µM
  TGI: > 100 µM
RPMI-8226 leukemia
  GI50: 0.694 µM
  TGI: > 100 µM
COLO 205 colon
  GI50: 3.4 µM
  TGI: > 100 µM
NCI-H23 lung
  GI50: 0.311 µM
  TGI: > 100 µM
RXF 393 renal
  GI50: > 100 µM
  TGI: > 100 µM
A549 NSCLC
  GI50: 0.0578 µM
  TGI: > 100 µM
SK-OV-3 ovarian
  GI50: 1.3 µM
  TGI: > 100 µM
MDA-MB-435
  GI50: 0.0589 µM
  TGI: > 100 µM
SW-620 colon
  GI50: 0.0432 µM
  TGI: > 100 µM
CCRF-CEM leukemia
  GI50: 0.0839 µM
  TGI: > 100 µM
SNB-19 CNS
  GI50: 2.16 µM
  TGI: > 100 µM
HOP-62 NSCLC
  GI50: 0.196 µM
  TGI: > 100 µM
MALME-3M melanoma
  TGI: > 100 µM
SR leukemia
  TGI: > 100 µM
KM12 colon
  GI50: 0.0817 µM
  TGI: > 100 µM
HCT-15 colon
  GI50: 0.049 µM
  TGI: > 100 µM
SK-MEL-28 melanoma
  TGI: > 100 µM
SF-268 CNS
  GI50: 0.174 µM
  TGI: > 100 µM
HCC-2998 colon
  GI50: 0.281 µM
  TGI: > 82 µM
MCF7 breast
  GI50: 0.0621 µM
  TGI: > 100 µM
ACHN renal
  GI50: 0.18 µM
  TGI: > 100 µM
CAKI-1 renal
  GI50: 0.108 µM
  TGI: > 100 µM
OVCAR-3 ovarian
  GI50: 3.83 µM
  TGI: > 100 µM
SK-MEL-2 melanoma
  TGI: > 100 µM
UO-31 renal
  GI50: 0.358 µM
  TGI: > 100 µM
SF-539 CNS
  GI50: 0.162 µM
  TGI: > 100 µM
NCI-H226 lung
  TGI: > 100 µM
HS 578T breast
  GI50: > 55.4 µM
  TGI: > 100 µM
OVCAR-4 ovarian
  GI50: > 100 µM
  TGI: > 100 µM
T-47D breast
  GI50: > 100 µM
  TGI: > 100 µM
NCI-H460 lung
  GI50: 0.0492 µM
  TGI: > 100 µM
MDA-MB-231 breast
  GI50: > 83.7 µM
  TGI: > 100 µM
OVCAR-8 ovarian
  GI50: 0.104 µM
  TGI: > 100 µM
SN12C renal
  GI50: 0.211 µM
  TGI: > 100 µM
DU-145 prostate
  GI50: 0.17 µM
  TGI: > 100 µM
NCI/ADR-RES ovarian
  GI50: 0.126 µM
  TGI: > 100 µM
LOX IMVI melanoma
  GI50: 0.0434 µM
  TGI: > 100 µM
BT-549 breast
  GI50: 0.429 µM
  TGI: > 100 µM
786-0 renal
  GI50: 0.103 µM
  TGI: > 100 µM
HCT-116 colon
  GI50: 0.026 µM
  TGI: > 100 µM
U251 CNS
  GI50: 0.2 µM
  TGI: > 100 µM
HL-60(TB) leukemia
  GI50: 0.0325 µM
  TGI: > 100 µM
MOLT-4 leukemia
  GI50: 0.825 µM
  TGI: > 100 µM
SF-295 CNS
  GI50: 0.0611 µM
K-562 leukemia
  GI50: 0.0359 µM
  TGI: > 100 µM
OVCAR-5 ovarian
  TGI: > 100 µM
A498 renal
  TGI: > 100 µM
HT29 colon
  GI50: 0.0594 µM
  TGI: > 100 µM
UACC-62 melanoma
  GI50: 0.218 µM
  TGI: > 100 µM
PC-3 prostate
  TGI: > 100 µM
IGROV1 ovarian
  GI50: 0.187 µM
  TGI: > 100 µM
M14 melanoma
  GI50: 0.119 µM
  TGI: > 87.7 µM
EKVX NSCLC
  TGI: > 100 µM
HOP-92 NSCLC
  GI50: > 41 µM
  TGI: > 100 µM
NCI-H522 lung
  TGI: > 100 µM
TK-10 renal
  TGI: > 100 µM
